Biological target: T1, penicillin-binding protein 2a (PBP2a) (Staphylococcus aureus, UniProt Q7DHH4)
T1 construct: gene mecA; residues 23-668, pET28a, from mecA of Staphylococcus aureus ATCC 43300
Assay: microscale thermophoresis (MST) with labelled recombinant PBP2a

T1 sequence (Q7DHH4 entry or part of it): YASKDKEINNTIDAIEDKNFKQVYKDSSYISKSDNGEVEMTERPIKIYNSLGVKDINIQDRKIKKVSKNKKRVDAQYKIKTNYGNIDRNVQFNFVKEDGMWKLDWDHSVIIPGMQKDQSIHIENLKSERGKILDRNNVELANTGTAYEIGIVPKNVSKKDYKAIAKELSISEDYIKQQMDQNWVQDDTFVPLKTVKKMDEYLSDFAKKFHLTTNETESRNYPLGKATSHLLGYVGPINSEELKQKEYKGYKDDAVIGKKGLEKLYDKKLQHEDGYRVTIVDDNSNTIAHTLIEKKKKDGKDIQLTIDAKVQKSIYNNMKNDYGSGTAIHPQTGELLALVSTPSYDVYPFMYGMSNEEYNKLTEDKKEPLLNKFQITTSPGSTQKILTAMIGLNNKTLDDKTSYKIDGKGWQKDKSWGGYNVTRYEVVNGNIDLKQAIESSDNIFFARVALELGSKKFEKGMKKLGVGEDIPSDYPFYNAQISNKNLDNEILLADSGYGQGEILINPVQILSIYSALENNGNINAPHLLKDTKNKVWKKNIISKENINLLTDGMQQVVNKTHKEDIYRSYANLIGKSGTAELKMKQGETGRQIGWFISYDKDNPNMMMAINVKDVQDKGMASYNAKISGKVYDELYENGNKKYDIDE

COC(=O)C1=C[C@]2(C)C[C@@]34CC[C@H]5C(C)(C)C(=O)C=C[C@]5(C)[C@]35OC[C@]14[C@](C)(CC2=O)O5 [compound 1, aspermerodione]
Kd: 18.4 ± 1.29 µM

Source: publication PMC5882964, “Aspermerodione, a novel fungal metabolite with an unusual 2,6-dioxabicyclo[2.2.1]heptane skeleton, as an inhibitor of penicillin-binding protein 2a” (Scientific Reports, 2018)
